The values that follow come from US9272985B2, “Antibacterial hydroxyphenyl compound” (FAB PHARMA S.A.S., priority 2009, dated 2016).

The structures appear in SMILES notation. ≈ marks a conversion by molar mass, not a printed value. Where two headings read alike, the source gives them in different places.

One data set deals with T1, FabI from S. aureus (Staphylococcus aureus, UniProt Q6GI75).
T1 construct: made in house
T1 sequence (Q6GI75 1-256): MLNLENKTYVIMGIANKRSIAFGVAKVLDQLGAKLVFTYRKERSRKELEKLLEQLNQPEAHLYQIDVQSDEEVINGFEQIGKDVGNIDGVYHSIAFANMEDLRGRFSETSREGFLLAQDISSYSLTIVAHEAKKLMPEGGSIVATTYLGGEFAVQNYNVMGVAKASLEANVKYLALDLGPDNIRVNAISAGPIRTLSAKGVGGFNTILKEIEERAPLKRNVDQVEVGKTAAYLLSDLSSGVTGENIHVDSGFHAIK
Briefly: In vitro inhibition of recombinant S. aureus FabI enzyme (fluorescence based assay). The format is biochemical. The method, then: (§1) Compound inhibitory activity of FabI enzyme is measured in vitro by the IC50 determination using a fluorescence based assay.
The protein FabI from S. aureus is prepared and purified using standard methods for recombinant protein expression after cloning of the gene in a prokaryotic expression vector.
(§2) The biochemical activity of the FabI enzyme is assessed using the following method.
The assay buffer “AB” contained 50 mM ADA (N-(2-acetamido)iminodiacetic acid monosodium salt) pH 6.5, 1 m M dithiothreitol, 0.006% Triton-X100 and 50 mM NaCl. The following components are added in a white polystyrene Costar plate (Ref 3912) up to a final volume of 55.5 μL: 1.5 μL DMSO or inhibitor dissolved in DMSO and 54 μL of a FabI/NADPH/NADP+ mixture in AB. […] Fluorescence intensity of NADPH (λex=360 nm, λem=520 nm) is measured immediately after t-O-NAC addition (T0), and approximately 50 min later (T50) by a Fluostar Optima (BMG) so as to achieve ±30% of NADPH conversion. Enzyme activity is calculated by first subtracting T0 signal to T50 and then subtracting background signal (FabI=0). Percentages of inhibition are calculated against untreated samples (Inhibitor=0) and IC50 are fitted to a classical Langmuir equilibrium model using XLFIT (IDBS).

Another data set concerns the target E. coli FabI enzyme (Escherichia coli, UniProt P0AEK4). As to the kind of experiment: In vitro inhibition of recombinant E. coli FabI enzyme. The format is biochemical. The method, then:
as §1, §2
The assay buffer “AB” contained 50 mM ADA (N-(2-acetamido)iminodiacetic acid monosodium salt) pH 6.5, 1 m M dithiothreitol, 0.006% Triton-X100 and 50 mM NaCl. The following components are added in a white polystyrene Costar plate (Ref 3912) up to a final volume of 55.5 μL: 1.5 μL DMSO or inhibitor dissolved in DMSO and 54 μL of a FabI/NADPH/NADP+ mixture in AB. After 60 min of pre-incubation at room temperature, the reaction is started by addition of 5 μL of trans-2-octenoyl N-acetylcysteamine thioester (t-o-NAC) to a final volume of 60.5 μL. […] Fluorescence intensity of NADPH (λex=360 nm, λem=520 nm) is measured immediately after t-O-NAC addition (T0), and approximately 50 min later (T50) by a Fluostar Optima (BMG) so as to achieve ±30% of NADPH conversion. Enzyme activity is calculated by first subtracting T0 signal to T50 and then subtracting background signal (FabI=0). Percentages of inhibition are calculated against untreated samples (Inhibitor=0) and IC50 are fitted to a classical Langmuir equilibrium model using XLFIT (IDBS).

The subject of another data set is S. aureus CIP 54.146. As to the kind of experiment: MIC determination using broth microdilution method. In kind it is cell-based. The following applies: Staphylococcus aureus, CIP54 / MSSA; MSSA CIP 54.146; range over a number of batches; read-out: MIC (μg/ml) (Broth microdilution) S. aureus CIP 54.146. The method, then:
The compound of the invention is a useful antibacterial agent having a selective spectrum of activity in vitro against bacterial strains relying on FabI and related targets. […] The activity is presented as Minimum Inhibitory Concentration (MIC) expressed in μg/ml and was determined using broth microdilution or Agar dilution methods.
Antibacterial activity was determined on MSSA CIP 54.146 provided by the Centre de Ressources Biologiques de l'Institut Pasteur
This protocol is compliant with Clinical Laboratory Standards Institute (CLSI) methodology as described in M7-A7 document of the CLSI. The compound to be tested is diluted according to a geometric series of reason 2 in pure DMSO. Dilutions are transferred in sterile polystyrene microplates, followed by mid-log phase bacteria in cation-adjusted Muller-Hinton broth (ca-MHB, Fluka, Reference 90922) with a final inoculum of 5×10^5 cfu/ml. Microplates are incubated overnight at 35° C. MIC is defined as the lowest concentration of antimicrobial agent that completely prevents visible bacterial growth. All manipulations, but compound handling (in pure DMSO), are performed under sterile conditions. The final concentration of DMSO in the plates is 2%.
Background: Broth dilution looks for growth in wells or tubes with falling amounts of substance.

The nature of data set [1]: Aqueous solubility at pH 7.4 buffer. In kind it is physicochemical. The following applies: for solubility at 24 h: aqueous buffer, thermodynamic from solid, 20° C. The method, then:
(§3) For each medium, the saturation of the medium is obtained by adding an excess of investigated compound to a given volume of test medium. The suspension is stirred at 20° C. for 24 h, the supernatant is then isolated and diluted to allow its injection into a chromatographic system. The concentration of the compound in solution for each medium is determined by external standardization.

A short description of data set [2]: Formulated solubility in 20% hydroxypropyl beta cyclodextrin aqueous solution with 5% dextrose. In kind it is physicochemical. Conditions: for solubility at 24 h: aqueous with cosolvent or surfactant or cyclodextrin, thermodynamic from solid, 20% hydroxypropyl beta cyclodextrin aqueous solution with 5% dextrose, 20° C. The method, then: as §3
Solubility was also investigated in a 20% hydroxypropyl beta cyclodextrin aqueous solution with 5% dextrose and the results are shown in Table 4.

Data set [3] deals with human norepinephrine transporter (Homo sapiens, UniProt P23975). Briefly: In vitro binding/enzyme panel: human norepinephrine transporter.
Data set [4] is described as follows: Panel of 112 in vitro binding assays and 42 in vitro enzyme assays. Conditions: except human norepinephrine transporter.
The next data set concerns the target hERG (Homo sapiens, UniProt Q12809). Briefly: hERG tail current amplitude in vitro. The format is cell-based. Conditions: after rundown subtraction. A general note: hERG is a cardiac potassium channel; its block is linked to QT prolongation.
Data set [5] is described as follows: QT interval in conscious dogs after single intravenous infusion. The format is in vivo.
A short description of data set [6]: Functional observation battery and evaluation of respiration function in rats. In kind it is in vivo. The following applies: compared to vehicle only.
Data set [7] is described as follows: In vivo studies in rats and dogs (adverse effects).
For data set [8], the system named is Streptococcus and Enterococcus. As to the kind of experiment: Activity against other Gram-positive pathogens not dependent upon FabI. The format is cell-based.
Data set [9] concerns target bacterial populations. As to the kind of experiment: Resistance and killing profile in target bacterial populations. The format is cell-based.
Data set [10] concerns MSSA, MRSA, VISA and VRSA strains. Briefly: In vitro activity against pathogenic S. aureus strains. The format is cell-based, Staphylococcus aureus. Conditions: several pathogenic strains. From the text: (§4) Such increased solubility provides the significant advantage of allowing the compound of the invention to be administered intravenously.
Data set [11] has as its system MSSA, MRSA and VISA infections. As to the kind of experiment: Murine infection model. In kind it is in vivo.
Description: as §4

The conditions of data set [12]: rats, intravenous; cited from earlier work.

Chain of E. coli FabI enzyme (P0AEK4 whole entry): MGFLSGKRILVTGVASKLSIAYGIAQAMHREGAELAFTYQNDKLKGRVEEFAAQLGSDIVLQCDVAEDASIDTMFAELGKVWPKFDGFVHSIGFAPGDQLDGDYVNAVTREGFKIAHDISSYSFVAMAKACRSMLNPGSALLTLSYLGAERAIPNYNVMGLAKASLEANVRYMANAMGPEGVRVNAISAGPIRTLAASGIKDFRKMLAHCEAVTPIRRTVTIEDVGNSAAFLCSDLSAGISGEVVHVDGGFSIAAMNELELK
Chain of hERG (Q12809 whole entry, the tested form may be a part): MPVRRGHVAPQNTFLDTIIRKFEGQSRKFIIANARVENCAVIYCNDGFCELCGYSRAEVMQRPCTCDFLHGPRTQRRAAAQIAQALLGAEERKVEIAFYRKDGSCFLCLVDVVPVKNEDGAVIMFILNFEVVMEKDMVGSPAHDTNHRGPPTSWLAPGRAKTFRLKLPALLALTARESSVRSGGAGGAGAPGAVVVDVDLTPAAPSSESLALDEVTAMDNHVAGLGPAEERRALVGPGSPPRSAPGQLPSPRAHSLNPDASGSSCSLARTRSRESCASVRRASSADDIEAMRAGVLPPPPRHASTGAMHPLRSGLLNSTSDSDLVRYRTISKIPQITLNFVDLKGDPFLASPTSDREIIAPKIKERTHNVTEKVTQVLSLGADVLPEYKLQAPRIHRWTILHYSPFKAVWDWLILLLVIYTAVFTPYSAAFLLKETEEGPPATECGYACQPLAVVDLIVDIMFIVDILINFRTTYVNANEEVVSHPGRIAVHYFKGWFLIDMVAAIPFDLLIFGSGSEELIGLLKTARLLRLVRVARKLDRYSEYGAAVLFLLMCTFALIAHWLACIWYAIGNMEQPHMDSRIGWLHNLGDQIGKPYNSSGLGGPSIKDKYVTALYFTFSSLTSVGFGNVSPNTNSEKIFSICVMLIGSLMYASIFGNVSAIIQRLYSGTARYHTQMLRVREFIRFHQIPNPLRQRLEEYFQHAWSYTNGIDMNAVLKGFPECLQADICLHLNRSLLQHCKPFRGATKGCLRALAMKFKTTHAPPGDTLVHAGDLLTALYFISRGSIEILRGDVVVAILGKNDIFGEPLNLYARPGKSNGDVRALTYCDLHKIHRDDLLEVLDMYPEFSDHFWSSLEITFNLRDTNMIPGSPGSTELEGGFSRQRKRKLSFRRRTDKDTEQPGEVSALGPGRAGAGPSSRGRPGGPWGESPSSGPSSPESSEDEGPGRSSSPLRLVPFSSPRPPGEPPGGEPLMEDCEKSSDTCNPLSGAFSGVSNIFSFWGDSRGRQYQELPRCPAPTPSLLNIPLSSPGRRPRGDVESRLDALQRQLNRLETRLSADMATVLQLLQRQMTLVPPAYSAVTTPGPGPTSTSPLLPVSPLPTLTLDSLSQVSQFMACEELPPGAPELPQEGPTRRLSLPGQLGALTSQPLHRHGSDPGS
Chain of human norepinephrine transporter (P23975 whole entry): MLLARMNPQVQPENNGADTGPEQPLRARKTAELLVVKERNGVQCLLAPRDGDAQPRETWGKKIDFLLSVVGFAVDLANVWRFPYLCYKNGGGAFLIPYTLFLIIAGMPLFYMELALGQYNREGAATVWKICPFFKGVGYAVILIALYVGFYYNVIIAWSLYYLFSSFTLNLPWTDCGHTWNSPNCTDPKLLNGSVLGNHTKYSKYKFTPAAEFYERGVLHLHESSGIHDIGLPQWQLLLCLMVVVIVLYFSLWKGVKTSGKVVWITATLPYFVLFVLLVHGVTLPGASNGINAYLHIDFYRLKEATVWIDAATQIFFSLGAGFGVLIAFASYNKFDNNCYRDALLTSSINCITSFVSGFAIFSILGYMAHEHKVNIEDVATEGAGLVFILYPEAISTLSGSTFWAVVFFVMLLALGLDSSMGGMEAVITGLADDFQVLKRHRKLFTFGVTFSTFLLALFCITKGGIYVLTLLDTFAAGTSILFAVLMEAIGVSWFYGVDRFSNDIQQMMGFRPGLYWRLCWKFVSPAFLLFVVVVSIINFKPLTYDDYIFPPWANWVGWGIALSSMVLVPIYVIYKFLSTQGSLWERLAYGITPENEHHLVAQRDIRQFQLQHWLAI

With `CCc1cc(O)c(Oc2cccnc2F)cc1F` [Comparative Example 2, 5-Ethyl-4-fluoro-2-(2-fluoropyridin-3yloxy)phenol, reference compound], the IC50 (in general, the concentration at which inhibition is half-maximal) is 0.008 to 0.017 µM on FabI from S. aureus (recombinant S. aureus FabI, range over a number of batches, read-out: FabI Inhibition IC50 (μM) S. aureus) and 0.019 to 0.065 µM on E. coli FabI enzyme (recombinant E. coli FabI, range over a number of batches, read-out: FabI Inhibition IC50 (μM) E. coli). For the same compound, the MIC with S. aureus CIP 54.146 stood at 0.063 µg/mL (≈ 0.251 µM). In addition, the figures for the solubility at 24 h in data set [1] and in [2] were 8 µg/mL (≈ 31.8 µM) and 2400 µg/mL (≈ 9550 µM), respectively.
On to `CCc1cc(O)c(Oc2ccc(C(N)=O)cc2F)cc1F` [Example 1, 4-(4-Ethyl-5-fluoro-2-hydroxyphenoxy)-3-fluorobenzamide], for which the figures for the IC50 on FabI from S. aureus and at E. coli FabI enzyme were 0.012 to 0.014 µM and 0.058 to 0.068 µM, respectively. In addition, the MIC with S. aureus CIP 54.146 fell in the range of 0.063 to 0.125 µg/mL (≈ 0.215 to 0.426 µM). The “Fold more soluble than comparative example 2” value is “two fold” in data set [1] and roughly 5 fold in data set [2] (20% hydroxypropyl beta cyclodextrin with 5% dextrose). In addition, the solubility (commonly how much of the substance goes into solution per volume) at 24 h in [1] turned out to be 16 µg/mL (≈ 54.6 µM); in data set [2] it was 11300 µg/mL (≈ 38500 µM). The “Inhibition of human norepinephrine transporter” value in data set [3] was found to be 88%. The “Affinity or activity in 112 in vitro binding assays and 42 in vitro enzyme assays” value in data set [4] is “devoid of any significant affinity or activity”. Besides, at hERG, testing at 30 µM gave an inhibition of 35.3%. For the same compound, the “Corrected QT after the end of infusion versus control group” value in data set [5] (after the end of infusion) is recorded as “generally lower than in the control group”. The QT interval prolongation entry in data set [5] (single intravenous infusion at 25, 50 and 100 mg/kg) is recorded as “no QT interval prolongation was observed”. In addition, the “Tolerability in functional observation battery and respiration function assays” value in data set [6] is on record as “well tolerated”. For the same compound, the “Adverse effects during in vivo studies” value in [7] was “no major adverse effects were reported”. The “Activity against Streptococcus and Enterococcus” value in data set [8] was “no activity”. Also, in data set [9] (target bacterial populations), the “Type of antibacterial effect” value is “bacteriostatic or slow bactericidal effect”. In data set [9] (target bacterial populations exposed to the compound), the “Spontaneous mutation rate towards drug resistance” value was “approximately 10^−9”. Further, the “Cross resistance with glycopeptides (Vancomycin) and oxazolidinones (Linezolid)” value in data set [9] (target microbial populations) is “no cross resistance”. In addition, the “In vitro activity against MSSA, MRSA, VISA and VRSA strains” value in [10] is “highly active”. In addition, in data set [11], the “In vivo activity in a murine model” value is on record as “active in vivo”.
With `Oc1cc(Cl)ccc1Oc1ccc(Cl)cc1Cl` [Triclosan], in data set [12], the LD50 (commonly the dose at which mortality reaches 50%) is 29 mg/kg.
